Results taken from patent publication US9096689B2, “Methods and compositions for inhibiting angiogenesis” (NORTHWESTERN UNIVERSITY, priority 2007, dated 2015).
“Also recorded” adds a separate entry of the source.

Key:
[1] = test system: PC-3 prostate cancer xenografts; assay: tumorigenicity assay, PC-3 xenografts; assay type: in vivo, nude mice; settings: 10 mg/kg, i.p.; for growth of PC-3 prostate cancer xenografts: from day 5 post injection
Description: PC-3 cells (2×10^6/site) were implanted into hindquarters of nude mice. On day 5 post injection, treatment was commenced with 34-mer and 18-mer (10 mg/kg, i.p.).

[2] = test system: Human microvascular endothelial cells; assay: endothelial cell apoptosis assay (ApopTag / TUNEL); assay type: cell-based; settings: for induction of endothelial cell apoptosis: HMVEC, overnight, low serum media, with or without bFGF, FIG. 4
Description: Confluent HMVEC cells growing on coverslips were incubated overnight in low serum media (0.2% FBS in MCDB)±PEDF peptides in the presence or absence of bFGF. ApopTag Fluorescein kit (Chemicon) was used to determine apoptotic cells. […] 3-5 fields (10×) were analyzed with epi-fluorescent microscope, and cells were counted using MetaMorph software. Apoptotic (FITC positive) cells were calculated as a % of total cells stained with PI per field.
The ability of the 34-mer fragments to induce endothelial cell apoptosis was next measured (FIG. 4).
In further experiments, human microvascular endothelial cells were treated with PEDF18 (SEQ ID NO:2) and PEDF11 (SEQ ID NO:102). Apoptosis was measured after 24 hours with terminal dUTP Nick-end Labeling (TUNEL) assay. […] It is noted that one advantage of PEDF11 over longer PEDF derivatives is in that this sequence is below critical length so it can be non-immunogenic during continuous applications.

[3] = test system: Human microvascular endothelial cells; assay: endothelial cell chemotaxis assay (bFGF-induced migration); assay type: cell-based; settings: for inhibition of bFGF-induced migration (chemotaxis): peptide at increasing concentrations; for inhibitor activity on bFGF-induced migration compared with native PEDF: vs rhPEDF at 20 nM
Description: The initial testing was done in the endothelial cell chemotaxis assay. Human microvascular endothelial cells to traverse gelatinized microporous membrane up the gradient of bFGF was tested in the absence and in the presence of the 14-, 18- and 23-mer peptides (FIG. 3). Human microvascular endothelial cells were plated on the lower side of gelatinized microporous membrane and allowed to adhere. The peptides (14-, 18 and 23-mer) were added at increasing concentrations to the opposite side of the gelatinized microporous membrane ([…]), alone, or in combination with basic fibroblast growth factor (bFGF, 10 ng/ml). The cells migratied to the opposite side of the membrane were counted in 10 high-powered (100×) fields. Every condition was tested in quadruplicate. bFGF-induced chemotaxis is shown (top line in each graph). Basal migration levels (0.1% bovine serum albumin) are indicated with the dotted line. Triangles (▴) show peptide alone; while squares (▪) show peptide with bFGF. The solid line (below the top line mentioned above) indicates the effect of the recombinant human PEDF (rhPEDF) at 20 nM.
Several truncated variants of P18 (SEQ ID NO:2) were generated, including an 11-mer (NFGYDLYRVRS; SEQ ID NO:102) which has the first 11 bases of P18, and an 8-mer, (NFGYDLYR; SEQ ID NO:119), which has the first 8 bases of P18. These variants were screened in endothelial cell apoptosis and chemotaxis assays, seeking those that inhibit chemotaxis and induce apoptosis with specific activity similar or better than that of P18. In particular, microvascular endothelial cells were plated in inverted modified Boyden chambers, and chemotaxis induced with bFGF (10 ng/ml). The cells migrated to bFGF were counted in 10 high-powered fields. Results for the 8-mer (SEQ ID NO:119) and the 11-mer (SEQ ID NO:102) are shown in FIGS. 12A and 12B respectively.

angiogenesis = assay: directed in vivo angiogenesis assay (DIVAA), s.c. matrigel angioreactors; set-up: species or system nude mice; settings: for anti-angiogenic effect in DIVAA: bFGF 37.5 and VEGF 12.5 ng/ml, day 7
Description: FIGS. 5A and 5B show the results of a corneal angiogenesis assay. The 34 mer and 18-mer peptides were incorporated with bFGF (50 ng/pellet) into slow-release sucralfate pellets, which were surgically implanted into the cornea of anesthetized mice, 0.5-1 mm from the vascular limbus. The responses were scored on day 5 post implantation and the ingrowth of blood vessels from the cornea to the pellet was considered a positive response. The responses were scored as positive corneas of total implanted: statistical significance was evaluated with Fisher's Exact test. P<0.05 was considered significant. […] The peptides were incorporated with a mix of bFGF and VEGF (37.5 and 12.5 ng/ml, respectively) into angioreactors filled with matrigel. The reactors were implanted s.c onto the flanks of the nude mice. On day 7, The reactors were harvested and photographed (5C). Endothelial cells collected from implants by dilution/centrifugation, stained with FITC-lectin and quantified by flow cytometry (5D).
Finally, the peptides were tested in vivo, in the corneal angiogenesis and directed in vivo angiogenesis assay (DIVAA). The 34-mer derivatives were compared in vivo with parental PEDF peptide, the 34-mer. FIG. 5 A, B: Corneal angiogenesis assay: the peptides were incorporated with bFGF (50 ng/pellet) into slow-release sucralfate pellets, which were surgically implanted into the cornea of anesthetized mice, 0.5-1 mm from the vascular limbus. The responses were scored on day 5 post implantation and the ingrowth of blood vessels from the cornea to the pellet was considered a positive response. The responses were scored as positive corneas of total implanted: statistical significance was evaluated with Fisher's Exact test. P<0.05 was considered significant. […] 5C, D. DIVAA of the 34-mer and derivative peptides. The peptides were incorporated with a mix of bFGF and VEGF (37.5 and 12.5 ng/ml, respectively) into angioreactors filled with matrigel. The reactors were implanted s.c onto the flanks of the nude mice. On day 7, the reactors were harvested and photographed (5C). Endothelial cells collected from implants by dilution/centrifugation, stained with FITC-lectin and quantified by flow cytometry (5D).

corneal angiogenesis = corneal angiogenesis assay; assay type: in vivo, mice; settings: bFGF 50 ng/pellet; scored day 5
Description: FIGS. 5A and 5B show the results of a corneal angiogenesis assay. The 34 mer and 18-mer peptides were incorporated with bFGF (50 ng/pellet) into slow-release sucralfate pellets, which were surgically implanted into the cornea of anesthetized mice, 0.5-1 mm from the vascular limbus. The responses were scored on day 5 post implantation and the ingrowth of blood vessels from the cornea to the pellet was considered a positive response. The responses were scored as positive corneas of total implanted: statistical significance was evaluated with Fisher's Exact test. P<0.05 was considered significant. […] Endothelial cells collected from implants by dilution/centrifugation, stained with FITC-lectin and quantified by flow cytometry (5D).
Finally, the peptides were tested in vivo, in the corneal angiogenesis and directed in vivo angiogenesis assay (DIVAA). […] The responses were scored on day 5 post implantation and the ingrowth of blood vessels from the cornea to the pellet was considered a positive response. The responses were scored as positive corneas of total implanted: statistical significance was evaluated with Fisher's Exact test. […] Endothelial cells collected from implants by dilution/centrifugation, stained with FITC-lectin and quantified by flow cytometry (5D).

[4] = test system: Mouse renal carcinoma cells (Renca, ATCC); assay: orthotopic renal cell carcinoma xenograft model (tumor growth and metastases); assay type: in vivo
Description: Mouse renal carcinoma cells (Renca, ATCC) were injected under the kidney capsule (0.5×10^6/site). Animals were randomly divided into 6 groups (8 per group) and the treatment started 5 days after inoculation (intraperitoneal injections). The following treatment groups were included: P18 (SEQ ID NO:2; 10 mg/kg); P18 (60 mg/kg); Rapamycin (R, 0.5 mg/kg); R+P18 (10 mg/kg) and R+P18 (60 mg/kg). The control group was treated with scrambled peptide, YFNGRSSPSNTNTYYVDRL (SEQ ID NO:51). After 17 days of treatment both kidneys were removed. To assess tumor growth, the weight of healthy kidney was subtracted from the weight of tumor-inoculated kidney, for each animal. The difference represents the weight of the tumor.
Metastases formation was also examined in the liver and lungs of the in the control treated animals and the groups treated with P18 and scrambled peptide (FIG. 9). The % affected organs is indicated under the representative images.

[5] = test system: choroidal neovascularization; assay: laser-induced choroidal neovascularization (CNV) mouse model; assay type: in vivo, mice
Description: This Example describes further characterization of P18 (PEDF18) and fragments thereof. […] Intravitreous injections of 1 μg (n=24), 10 μg (n=24) of PEDF18, or vehicle (n=21) were given at the day of laser photocoagulation-induced rupture of Bruch's membrane. Two weeks after laser induction, mice were euthanized and the area of CNV was measured. […] NV=neovascularization.

Row | Substance | growth of PC-3 prostate cancer xenografts [1] | induction of endothelial cell apoptosis [2] | inhibition of bFGF-induced migration (chemotaxis) ([3]; bFGF 10 ng/ml) | anti-angiogenic effect in DIVAA (angiogenesis) | inhibitor activity on bFGF-induced migration compared with native PEDF [3] | also measured
1 | 34-mer: 34-mer PEDF peptide (amino acids 44-77 at the N-terminus), parental PEDF peptide (DPFFKVPVNKLAAAVSNFGYDLYRVRSSMSPTTN) [reference compound] | only marginal effect |  |  |  |  | 
2 | AAAVSNFGYDLYRVRSSTSPTTN [23-mer] |  | failed to induced apoptosis | comparable to PEDF at low concentrations and lost its inhibitory activity at higher doses | failed to inhibit angiogenesis |  | 
3 | DLYRVRSSTSPTTN [14-mer] |  | very weak induction of apoptosis | inhibited bFGF-induced migration in a dose-dependent manner |  | superior to that of native PEDF | 
4 | NFGYDLYRVRS [PEDF11] |  |  | dose-dependent inhibition |  |  | concentration causing EC apoptosis [2]: 10 to 100 nM; concentration at which chemotaxis is inhibited ([3]; bFGF 10 ng/ml, FIG. 12B): 1 to 10 nM; efficacy compared with P18 ([3]; chemotaxis inhibition and EC apoptosis, vs P18 (FIG. 3)): comparable to that of P18
5 | NFGYDLYRVRSSTSPTTN [18-mer] | significantly inhibited the growth | more potent than the parental PEDF and as potent as the 34-mer | inhibited bFGF-induced migration in a dose-dependent manner | showed the best anti-angiogenic characteristics | superior to that of native PEDF | tumor volume ([1]; FIG. 6): substantial reduction in tumor volume; anti-angiogenic effect in corneal angiogenesis assay (corneal angiogenesis): showed the best anti-angiogenic characteristics; tumor weight ([4]; P18 alone, i.p., 17 days of treatment, vs scrambled peptide): significant (P<0.0003) decrease in tumor weight; liver metastases ([4]; P18 treatment, FIG. 9): eradicated liver metastases; blocking of VEGF-induced angiogenesis (angiogenesis; in vitro and in vivo in the subcutaneous matrigel plug assays): effectively blocks VEGF-induced angiogenesis; activity in blocking angiogenesis compared with the 34-mer (angiogenesis; mouse, in vivo): more active in blocking angiogenesis than the original 34-mer; area of CNV at laser sites ([5]; intravitreous 1 μg or 10 μg, two weeks after laser induction, vs vehicle): significantly smaller areas of neovascularization; choroidal neovascularization (overall effect) ([5]; mouse, laser-induced, listed as PEDF18): suppresses choroidal neovascularization; also recorded: effectively alleviated laser-induced choroidal neovascularization (CNV)
